Results as given in ChEMBL document CHEMBL1157521, “Discovery of a potent, selective, and less flexible selective norepinephrine reuptake inhibitor (sNRI)” (Bioorg Med Chem Lett, 2008).

Columns and labels:
[1] = target: Sodium-dependent noradrenaline transporter (Homo sapiens, UniProt P23975); assay: Inhibition of norepinephrine uptake at human NET in human HEK293 cells; type: cell-based
[2] = target: Sodium-dependent serotonin transporter (Homo sapiens, UniProt P31645); type: cell-based, HEK293;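 also: blockade of serotonin uptake through human SERT expressed in HEK293 cells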
Sequence of Sodium-dependent serotonin transporter (P31645 whole entry): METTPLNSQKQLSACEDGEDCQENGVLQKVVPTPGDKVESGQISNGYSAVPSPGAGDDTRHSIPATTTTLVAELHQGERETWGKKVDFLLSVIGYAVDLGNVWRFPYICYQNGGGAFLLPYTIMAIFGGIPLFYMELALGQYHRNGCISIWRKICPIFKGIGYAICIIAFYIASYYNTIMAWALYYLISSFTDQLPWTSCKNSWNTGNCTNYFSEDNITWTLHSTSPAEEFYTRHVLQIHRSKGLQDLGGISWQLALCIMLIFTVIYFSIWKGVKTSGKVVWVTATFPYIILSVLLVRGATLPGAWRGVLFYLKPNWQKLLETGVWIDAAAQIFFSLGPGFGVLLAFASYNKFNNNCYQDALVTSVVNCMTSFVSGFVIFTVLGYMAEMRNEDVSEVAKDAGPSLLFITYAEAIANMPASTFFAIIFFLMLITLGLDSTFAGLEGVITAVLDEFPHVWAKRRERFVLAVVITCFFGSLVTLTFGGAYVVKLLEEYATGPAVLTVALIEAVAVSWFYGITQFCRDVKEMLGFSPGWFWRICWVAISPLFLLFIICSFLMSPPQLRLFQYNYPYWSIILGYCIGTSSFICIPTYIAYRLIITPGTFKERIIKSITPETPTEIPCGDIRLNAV

[3] = target: Sodium-dependent dopamine transporter (Homo sapiens, UniProt Q01959); assay: Inhibition of dopamine uptake at human DAT in human HEK293 cells; type: cell-based
Sequence of Sodium-dependent dopamine transporter (Q01959 whole entry): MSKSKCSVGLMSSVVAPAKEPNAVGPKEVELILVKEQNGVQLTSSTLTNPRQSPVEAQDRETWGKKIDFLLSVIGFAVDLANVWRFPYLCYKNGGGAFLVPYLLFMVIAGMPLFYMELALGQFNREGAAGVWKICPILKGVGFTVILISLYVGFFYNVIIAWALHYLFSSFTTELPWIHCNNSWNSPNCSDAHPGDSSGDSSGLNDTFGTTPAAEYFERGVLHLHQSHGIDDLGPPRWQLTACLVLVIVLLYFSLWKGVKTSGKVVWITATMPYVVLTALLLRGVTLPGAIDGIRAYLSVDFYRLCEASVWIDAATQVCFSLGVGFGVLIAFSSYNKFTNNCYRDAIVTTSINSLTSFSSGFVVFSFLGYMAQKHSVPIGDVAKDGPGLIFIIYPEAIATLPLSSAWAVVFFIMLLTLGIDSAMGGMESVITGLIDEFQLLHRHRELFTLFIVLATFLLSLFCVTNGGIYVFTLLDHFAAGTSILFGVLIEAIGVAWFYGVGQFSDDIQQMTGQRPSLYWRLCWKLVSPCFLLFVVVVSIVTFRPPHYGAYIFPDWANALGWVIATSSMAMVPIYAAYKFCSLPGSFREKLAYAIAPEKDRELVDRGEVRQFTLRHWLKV

[4] = target: Cytochrome P450 2D6 (Homo sapiens, UniProt P10635); assay: Inhibition of CYP2D6; type: ADME
Sequence of Cytochrome P450 2D6 (P10635 whole entry): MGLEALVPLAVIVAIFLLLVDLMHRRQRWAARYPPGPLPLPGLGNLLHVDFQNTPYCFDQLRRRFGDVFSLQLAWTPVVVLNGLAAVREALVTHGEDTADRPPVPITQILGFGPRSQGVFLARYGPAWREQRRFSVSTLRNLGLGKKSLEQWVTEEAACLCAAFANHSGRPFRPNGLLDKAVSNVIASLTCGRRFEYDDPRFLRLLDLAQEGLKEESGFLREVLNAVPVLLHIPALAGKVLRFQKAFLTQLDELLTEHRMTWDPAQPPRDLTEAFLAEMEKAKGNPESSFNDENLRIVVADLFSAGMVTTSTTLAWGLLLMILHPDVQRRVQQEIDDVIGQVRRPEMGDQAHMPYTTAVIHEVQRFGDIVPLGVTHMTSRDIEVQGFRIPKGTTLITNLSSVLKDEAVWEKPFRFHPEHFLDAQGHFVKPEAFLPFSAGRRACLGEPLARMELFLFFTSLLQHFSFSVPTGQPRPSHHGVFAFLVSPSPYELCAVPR

[5] = target: 5-hydroxytryptamine receptor 2B (Homo sapiens) (UniProt P41595); assay: Binding affinity to 5HT2B
Sequence of 5-hydroxytryptamine receptor 2B (Homo sapiens) (P41595 whole entry): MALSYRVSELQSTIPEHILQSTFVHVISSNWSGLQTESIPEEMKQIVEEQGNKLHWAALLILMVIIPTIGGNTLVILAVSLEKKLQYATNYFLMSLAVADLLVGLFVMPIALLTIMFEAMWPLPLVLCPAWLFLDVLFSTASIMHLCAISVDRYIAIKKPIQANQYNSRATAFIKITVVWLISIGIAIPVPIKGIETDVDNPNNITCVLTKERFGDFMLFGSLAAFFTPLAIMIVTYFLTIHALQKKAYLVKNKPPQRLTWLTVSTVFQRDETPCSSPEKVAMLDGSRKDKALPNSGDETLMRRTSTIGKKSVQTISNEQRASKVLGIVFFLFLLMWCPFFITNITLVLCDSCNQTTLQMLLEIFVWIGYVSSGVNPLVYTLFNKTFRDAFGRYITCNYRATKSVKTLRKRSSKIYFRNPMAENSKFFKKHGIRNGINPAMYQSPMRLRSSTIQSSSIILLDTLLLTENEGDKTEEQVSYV

Sequence of Sodium-dependent noradrenaline transporter (P23975 whole entry): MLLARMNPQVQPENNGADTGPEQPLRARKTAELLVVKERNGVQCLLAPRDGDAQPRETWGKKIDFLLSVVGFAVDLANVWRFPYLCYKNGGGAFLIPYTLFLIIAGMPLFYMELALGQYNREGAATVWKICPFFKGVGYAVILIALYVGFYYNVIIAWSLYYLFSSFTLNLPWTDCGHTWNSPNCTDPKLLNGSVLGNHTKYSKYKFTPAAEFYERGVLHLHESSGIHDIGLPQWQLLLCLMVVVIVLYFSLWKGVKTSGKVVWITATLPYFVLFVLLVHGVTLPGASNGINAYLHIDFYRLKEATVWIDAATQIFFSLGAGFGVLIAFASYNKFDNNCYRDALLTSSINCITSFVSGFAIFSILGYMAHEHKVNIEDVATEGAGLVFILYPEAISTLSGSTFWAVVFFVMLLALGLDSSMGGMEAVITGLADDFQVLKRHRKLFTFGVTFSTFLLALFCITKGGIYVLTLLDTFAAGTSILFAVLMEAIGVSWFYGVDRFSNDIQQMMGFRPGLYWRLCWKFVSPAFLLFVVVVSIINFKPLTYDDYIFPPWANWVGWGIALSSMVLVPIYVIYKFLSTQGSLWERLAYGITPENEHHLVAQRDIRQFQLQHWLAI

| Structure (SMILES) | IC50 [1] [nM] | IC50 [2] [nM] | IC50 [3] [nM] | IC50 [4] [nM] | Activity [5] [nM] |
| --- | --- | --- | --- | --- | --- |
| CN[C@@H]1Cc2ccccc2[C@H](Oc2ccccc2C)C1 | 190 | 3000 | > 10000 | – | – |
| CN[C@H]1Cc2ccccc2[C@H](Oc2ccccc2C)C1 | 8 | 590 | 8000 | 250 | 250 |
| COc1ccc(O[C@H]2C[C@@H](N(C)C)c3ccccc32)cc1 | 6000 | 130 | > 10000 | – | – |
| Cc1ccccc1O[C@@H]1C[C@@H](N(C)C)Cc2ccccc21 | 430 | 700 | > 10000 | – | – |
| Cc1ccccc1O[C@H]1C[C@H](N(C)C)c2ccccc21 | 150 | 150 | 3400 | – | – |
| CN[C@@H]1Cc2ccccc2[C@@H](Oc2ccccc2C)C1 | 200 | 3300 | 4500 | – | – |
| CN[C@H]1Cc2ccccc2[C@@H](Oc2ccccc2C)C1 | 160 | 1100 | 6000 | – | – |
| CN[C@@H]1C[C@H](Oc2ccccc2)c2ccccc21 (relative stereo) | 2000 | > 10000 | 5000 | – | – |
| CN[C@@H]1C[C@H](Oc2ccccc2C)c2ccccc21 (relative stereo) | 660 | 1400 | 4600 | – | – |
| CN[C@@H]1CC[C@H](Oc2ccccc2C)c2ccccc21 (relative stereo) | 520 | 5000 | 1000 | – | – |
| Cc1ccccc1O[C@H]1CC[C@@H](N)c2ccccc21 (relative stereo) | 630 | 2300 | 1000 | – | – |
| Cc1ccccc1O[C@@H]1CC[C@@H](N)c2ccccc21 (relative stereo) | 950 | > 10000 | 1000 | – | – |
| Cc1ccccc1O[C@H]1C[C@H](N)c2ccccc21 (relative stereo) | 840 | 10000 | 600 | – | – |
| CN[C@H]1C[C@H](Oc2ccccc2C)c2ccccc21 (relative stereo) | 72 | 370 | 180 | – | – |
| CCN[C@@H]1C[C@H](Oc2ccccc2C)c2ccccc21 (relative stereo) | 3000 | 8000 | 2500 | – | – |
| CCN(CC)[C@@H]1C[C@H](Oc2ccccc2C)c2ccccc21 (relative stereo) | 2000 | 3000 | 2500 | – | – |
| Cc1ccccc1O[C@H]1C[C@@H](N(C)C(C)C)c2ccccc21 (relative stereo) | 1100 | > 10000 | > 10000 | – | – |
| CN(C)[C@@H]1C[C@H](Oc2ccc(Cl)cc2)c2ccccc21 (relative stereo) | 1600 | 50 | 7000 | – | – |
| COc1ccccc1O[C@H]1C[C@@H](N(C)C)c2ccccc21 (relative stereo) | 3000 | 3500 | > 10000 | – | – |
| CN[C@@H]1C[C@H](Oc2ccc(Cl)cc2)c2ccccc21 (relative stereo) | 4000 | 320 | 4000 | – | – |
| N[C@@H]1C[C@H](Oc2ccc(Cl)cc2)c2ccccc21 (relative stereo) | 4000 | 9000 | 2400 | – | – |
| CN(C)[C@@H]1C[C@H](Oc2ccccc2)c2ccccc21 (relative stereo) | 800 | 2000 | > 10000 | – | – |
| Cc1ccccc1O[C@H]1C[C@@H](N(C)C)c2ccccc21 (relative stereo) | 150 | 300 | 10000 | – | – |
| N[C@@H]1C[C@H](Oc2ccccc2)c2ccccc21 (relative stereo) | 5000 | > 10000 | 2000 | – | – |
| CNCCC(Oc1ccccc1OC)c1ccccc1 (stereo not given) [NISOXETINE] | – | 1400 | – | – | – |
